What was measured:
[1] = test system: MERS; test: microbe, parasite or virus in culture; assay type: cell-based, MERS-CoV; conditions: Middle East respiratory syndrome-related coronavirus, Vero, read-out: average EC50 (50% virus inhibitory concentration)
[2] = test system: SARS-CoV-2; test: SARS-CoV-2 viral transcript levels by quantitative real-time PCR in Vero E6 cells; assay type: cell-based; conditions: for EC50: Severe acute respiratory syndrome coronavirus 2, Vero C1008, Vero E6 cells, compound added 3 hours after virus (100 TCID50), assayed 48 hours later, read-out: EC50, viral transcript copy number
[3] = in vitro; conditions: African green monkey
[4] = test system: SARS; test: microbe, parasite or virus in culture; assay type: cell-based, SARS-CoV; conditions: Severe acute respiratory syndrome coronavirus, Vero, read-out: average EC50 (50% virus inhibitory concentration)

Row | SMILES | EC50 [1] | selectivity index (CC50/EC50) ([2]; SARS-CoV-2, Vero E6 cells) | EC50 [2] | CC50 [3] | EC50 [4]
1 | Cc1cccc(/C=N/Nc2cc(N3CCOCC3)nc(OCCc3ccccn3)n2)c1 [apilimod dimesylate] | 13.8 µM | 9.1 | 2.2 µM | 20 µM | 3.7 µM
2 | CCC(CC)COC(=O)[C@H](C)N[P@](=O)(OC[C@H]1O[C@@](C#N)(c2ccc3c(N)ncnn23)[C@H](O)[C@@H]1O)Oc1ccccc1 [remdesivir] | – | – | 0.7 µM | 205 µM | –

Source: patent US20210244743A1 (priority 2020, published 2021)
